Measurements: paper PMC3293629 (Nature Communications, 2012)
Read-outs that look alike come from different tables or passages of the source.

Columns and labels:
[1] = system: HA1.7, F11 and HA-C6 TCRs; test: SPR equilibrium binding of HA1.7, F11 and HA-C6 TCRs, combined; set-up: species or system human; conditions: Arg at P10 or P11
[2] = system: Flu1-specific clone HA1.7; test: IFN-γ ELISpot, other Flu1-specific clones; format: cell-based, human; conditions: Fig. 1c, peptide titration, compared with Flu1
[3] = system: TRB clonotypes of tetramer-sorted CD4^+ T cells; format: cell-based, human
[4] = system: CD4^+ T cells binding the HLA-DR1/HA305−320 tetramer; format: cell-based, human
[5] = system: CD4^+ HLA-DR1/HA305−320 tetramer-positive cells; format: cell-based, human

Row | Sequence | increase in TCR binding affinity [1] [fold] | responsiveness to altered peptides, other clones (in words) [2] | Freq. of clonotype ([3]; TRBV 5–6, CDR3 […], TRBJ 1–2) [%] | Freq. of clonotype ([3]; TRBV 12–3/4, CDR3 […], TRBJ 1–5) [%] | clonotypic composition, repeat experiment versus first (in words) ([3]; same donor, Chi square 0.72, P=0.70, data not shown) | tetramer-positive expansion, % of CD3^+ T cells ([4]; short-term T-cell line primed with peptide, HLA-DR1/HA305−320 tetramer) | clonotypic composition, repeat experiment versus first (in words) [3] | tetramer-positive expansion, % of CD3^+ T cells [4] | number of expanded CD4^+ HLA-DR1/HA305−320 tetramer-positive cells [5]
1 | PKYVKQNTLKLAR [Flu3] | > 2 | striking increase in responsiveness | 69.70 | 30.30 | no significant difference | 28.7 % of CD3^+ T cells | – | – | –
2 | PKYVKQNTLKLAT [Flu1, reference compound] | – | – | – | – | – | – | no significant difference | 19.4 % of CD3^+ T cells | ≥ 5×10^4 cells
